Measured values published in patent publication US20230151025A1, “SUBSTITUTED THIAZOLOPYRIDINES, SALTS THEREOF AND THEIR USE AS HERBICIDALLY ACTIVE SUBSTANCES” (Bayer Aktiengesellschaft, priority 2020, published 2023).

These compounds were tested on Alopecurus myosuroides (ALOMY) (assay: Herbicidal pre-emergence action (A), 1280 g/ha). Details: visual grading after ca. 3 weeks vs untreated controls, 100% = plants have died off, 0% = as control plants.
Assay type: in vivo
Text: (§1) ABUTH: Abutilon theophrasti AGSTE: Agrostis tenuis ALOMY: Alopecurus myosuroides AMARE Amaranthus retroflexus DIGSA: Digitaria sanguinalis ECHCG: Echinochloa crus-galli KCHSC: Kochia scoparia LOLRI: Lolium rigidum MATIN: Matricaria inodora POAAN: Poa annua POLCO: Polygonum convolvulus SETVI: Setaria viridis STEME: Stellaria media VERPE: Veronica persica VIOTR: Viola tricolor
(§2) Seeds of mono- and dicotyledonous weed plants were sown in plastic pots (double sowings with one species of mono- and one species of dicotyledonous weed plants per pot), in sandy loam, and covered with soil. The compounds according to the invention, formulated in the form of wettable powders (WP) or as emulsifiable concentrates (EC), were applied to the surface of the covering soil as aqueous suspension or emulsion, with the addition of 0.5% of an additive, at an application rate of 600 l of water per hectare (converted). Following treatment, the pots were placed in a greenhouse and kept under optimum growth conditions for the test plants. The visual grading of the damage to the test plants was carried out after ca. 3 weeks in comparison to untreated controls (herbicidal effect in percent (%): 100% effect=plants have died off, 0% effect=as control plants).
(§3) Tables A1 to A12, below, show the effects of selected compounds of the general formula (I) according to table 1 on various harmful plants and an application rate corresponding to 1280 g/ha obtained by the experimental procedure mentioned above.

Row | SMILES | ALOMY, herbicidal effect in percent (%)
1 | Fc1cc(F)c(-c2nc3ncsc3cc2Cl)c(F)c1 [Example I-035] | 90
2 | CCc1cc2scnc2nc1-c1ccccc1C(F)(F)F [Example I-049] | 100
3 | Cc1cccc(F)c1-c1nc2ncsc2cc1Br [Example I-088] | 100

What follows are compounds tested on Amaranthus retroflexus (AMARE) (assay: Herbicidal pre-emergence action (A), 1280 g/ha). Details: visual grading after ca. 3 weeks vs untreated controls.
Assay type: in vivo
Text: as §1, §2, §3

Row | SMILES | herbicidal effect AMARE [%]
4 | Fc1cc(F)c(-c2nc3ncsc3cc2Cl)c(F)c1 [Example I-035] | 90
5 | CCc1cc2scnc2nc1-c1ccccc1C(F)(F)F [Example I-049] | 90
6 | Cc1cccc(F)c1-c1nc2ncsc2cc1Br [Example I-088] | 90

Each compound was assayed on Digitaria sanguinalis (DIGSA) (assay: Herbicidal pre-emergence action (A), 1280 g/ha). Details: visual grading after ca. 3 weeks vs untreated controls, 100% = plants have died off, 0% = as control plants.
Assay type: in vivo
Text: as §1, §2, §3

Row | SMILES | DIGSA, herbicidal effect in percent (%)
7 | CCc1cc2scnc2nc1-c1ccccc1C(F)(F)F [Example I-049] | 90

What follows are compounds tested on Echinochloa crus-galli (ECHCG) (assay: Herbicidal pre-emergence action (A), 1280 g/ha). Details: visual grading after ca. 3 weeks vs untreated controls, 100% = plants have died off, 0% = as control plants.
Assay type: in vivo
Text: as §1, §2, §3

Row | SMILES | ECHCG, herbicidal effect in percent (%)
8 | Fc1cc(F)c(-c2nc3ncsc3cc2Cl)c(F)c1 [Example I-035] | 100
9 | CCc1cc2scnc2nc1-c1ccccc1C(F)(F)F [Example I-049] | 100
10 | Cc1cccc(F)c1-c1nc2ncsc2cc1Br [Example I-088] | 100

What follows are compounds tested on Kochia scoparia (KCHSC; Bassia scoparia) (assay: Herbicidal pre-emergence action (A), 1280 g/ha). Details: visual grading after ca. 3 weeks vs untreated controls.
Assay type: in vivo
Text: as §1, §2, §3

Row | SMILES | herbicidal effect KCHSC [%]
11 | Fc1cc(F)c(-c2nc3ncsc3cc2Cl)c(F)c1 [Example I-035] | 90
12 | CCc1cc2scnc2nc1-c1ccccc1C(F)(F)F [Example I-049] | 100
13 | Cc1cccc(F)c1-c1nc2ncsc2cc1Br [Example I-088] | 90

Each compound was assayed on Lolium rigidum (LOLRI) (assay: Herbicidal pre-emergence action (A), 1280 g/ha). Details: visual grading after ca. 3 weeks vs untreated controls, 100% = plants have died off, 0% = as control plants.
Assay type: in vivo
Text: as §1, §2, §3

Row | SMILES | LOLRI, herbicidal effect in percent (%)
14 | Fc1cc(F)c(-c2nc3ncsc3cc2Cl)c(F)c1 [Example I-035] | 100
15 | CCc1cc2scnc2nc1-c1ccccc1C(F)(F)F [Example I-049] | 100
16 | Cc1cccc(F)c1-c1nc2ncsc2cc1Br [Example I-088] | 100

These compounds were tested on Matricaria inodora (MATIN) (assay: Herbicidal pre-emergence action (A), 1280 g/ha). Details: visual grading after ca. 3 weeks vs untreated controls.
Assay type: in vivo
Text: as §1, §2, §3

Row | SMILES | herbicidal effect MATIN [%]
17 | Fc1cc(F)c(-c2nc3ncsc3cc2Cl)c(F)c1 [Example I-035] | 90
18 | CCc1cc2scnc2nc1-c1ccccc1C(F)(F)F [Example I-049] | 90
19 | Cc1cccc(F)c1-c1nc2ncsc2cc1Br [Example I-088] | 90

Each compound was assayed on Poa annua (POAAN) (assay: Herbicidal pre-emergence action (A), 1280 g/ha). Details: visual grading after ca. 3 weeks vs untreated controls, 100% = plants have died off, 0% = as control plants.
Assay type: in vivo
Text: as §1, §2, §3

Row | SMILES | POAAN, herbicidal effect in percent (%)
20 | Fc1cc(F)c(-c2nc3ncsc3cc2Cl)c(F)c1 [Example I-035] | 100
21 | CCc1cc2scnc2nc1-c1ccccc1C(F)(F)F [Example I-049] | 100
22 | Cc1cccc(F)c1-c1nc2ncsc2cc1Br [Example I-088] | 100

Each compound was assayed on Setaria viridis (SETVI) (assay: Herbicidal pre-emergence action (A), 1280 g/ha). Details: visual grading after ca. 3 weeks vs untreated controls.
Assay type: in vivo
Text: as §1, §2, §3

Row | SMILES | herbicidal effect SETVI [%]
23 | Fc1cc(F)c(-c2nc3ncsc3cc2Cl)c(F)c1 [Example I-035] | 100
24 | CCc1cc2scnc2nc1-c1ccccc1C(F)(F)F [Example I-049] | 100
25 | Cc1cccc(F)c1-c1nc2ncsc2cc1Br [Example I-088] | 100

What follows are compounds tested on Stellaria media (STEME) (assay: Herbicidal pre-emergence action (A), 1280 g/ha). Details: visual grading after ca. 3 weeks vs untreated controls.
Assay type: in vivo
Text: as §1, §2, §3

Row | SMILES | herbicidal effect STEME [%]
26 | Fc1cc(F)c(-c2nc3ncsc3cc2Cl)c(F)c1 [Example I-035] | 90
27 | CCc1cc2scnc2nc1-c1ccccc1C(F)(F)F [Example I-049] | 100
28 | Cc1cccc(F)c1-c1nc2ncsc2cc1Br [Example I-088] | 90

Each compound was assayed on Veronica persica (VERPE) (assay: Herbicidal pre-emergence action (A), 1280 g/ha). Details: visual grading after ca. 3 weeks vs untreated controls.
Assay type: in vivo
Text: as §1, §2, §3

Row | SMILES | herbicidal effect VERPE [%]
29 | Fc1cc(F)c(-c2nc3ncsc3cc2Cl)c(F)c1 [Example I-035] | 90
30 | CCc1cc2scnc2nc1-c1ccccc1C(F)(F)F [Example I-049] | 100

The compounds below were run on Abutilon theophrasti (ABUTH) (assay: Herbicidal post-emergence action (B), 1280 g/ha). Details: rated visually after about 3 weeks vs untreated controls.
Assay type: in vivo
Text: as §1
(§4) Seeds of mono- and dicotyledonous weed plants were placed in plastic pots in sandy loam soil (doubly sown with in each case one species of mono- or dicotyledonous weed plants per pot), covered with soil and cultivated in a greenhouse under controlled growth conditions. 2 to 3 weeks after sowing, the test plants were treated at the one-leaf stage. The compounds of the invention, formulated in the form of wettable powders (WP) or as emulsion concentrates (EC), were applied onto the green parts of the plants as aqueous suspension or emulsion with addition of 0.5% additive at a water application rate of 600 liters per hectare (converted). After the test plants had been kept in the greenhouse under optimum growth conditions for about 3 weeks, the activity of the preparations was rated visually in comparison to untreated controls. For example, 100% activity=the plants have died, 0% activity=like control plants.
(§5) Tables B1 to B12, below, show the effects of selected compounds of the general formula (I) according to table 1 on various harmful plants and an application rate corresponding to 1280 g/ha obtained by the experimental procedure mentioned above.

Row | SMILES | herbicidal activity ABUTH [%]
31 | Fc1cc(F)c(-c2nc3ncsc3cc2Cl)c(F)c1 [Example I-035] | 90
32 | Cc1cccc(F)c1-c1nc2ncsc2cc1Br [Example I-088] | 90

Each compound was assayed on Alopecurus myosuroides (ALOMY) (assay: Herbicidal post-emergence action (B), 1280 g/ha). Details: rated visually after about 3 weeks vs untreated controls.
Assay type: in vivo
Text: as §1, §4, §5

Row | SMILES | herbicidal activity ALOMY [%]
33 | Fc1cc(F)c(-c2nc3ncsc3cc2Cl)c(F)c1 [Example I-035] | 90

The compounds below were run on Amaranthus retroflexus (AMARE) (assay: Herbicidal post-emergence action (B), 1280 g/ha). Details: rated visually after about 3 weeks vs untreated controls.
Assay type: in vivo
Text: as §1, §4, §5

Row | SMILES | herbicidal activity AMARE [%]
34 | Fc1cc(F)c(-c2nc3ncsc3cc2Cl)c(F)c1 [Example I-035] | 100
35 | CCc1cc2scnc2nc1-c1ccccc1C(F)(F)F [Example I-049] | 100
36 | Cc1cccc(F)c1-c1nc2ncsc2cc1Br [Example I-088] | 100

Each compound was assayed on Digitaria sanguinalis (DIGSA) (assay: Herbicidal post-emergence action (B), 1280 g/ha). Details: rated visually after about 3 weeks vs untreated controls.
Assay type: in vivo
Text: as §1, §4, §5

Row | SMILES | herbicidal activity DIGSA [%]
37 | CCc1cc2scnc2nc1-c1ccccc1C(F)(F)F [Example I-049] | 90

Each compound was assayed on Echinochloa crus-galli (ECHCG) (assay: Herbicidal post-emergence action (B), 1280 g/ha). Details: rated visually after about 3 weeks vs untreated controls.
Assay type: in vivo
Text: as §1, §4, §5

Row | SMILES | herbicidal activity ECHCG [%]
38 | Fc1cc(F)c(-c2nc3ncsc3cc2Cl)c(F)c1 [Example I-035] | 90

Each compound was assayed on Kochia scoparia (KCHSC; Bassia scoparia) (assay: Herbicidal post-emergence action (B), 1280 g/ha). Details: not given.
Assay type: in vivo
Text: as §1, §4, §5

Row | SMILES | herbicidal effect KCHSC [%]
39 | Fc1cc(F)c(-c2nc3ncsc3cc2Cl)c(F)c1 [Example I-035] | 90
40 | CCc1cc2scnc2nc1-c1ccccc1C(F)(F)F [Example I-049] | 100
41 | Cc1cccc(F)c1-c1nc2ncsc2cc1Br [Example I-088] | 100

Each compound was assayed on Poa annua (POAAN) (assay: Herbicidal post-emergence action (B), 1280 g/ha). Details: rated visually after about 3 weeks vs untreated controls.
Assay type: in vivo
Text: as §1, §4, §5

Row | SMILES | herbicidal activity POAAN [%]
42 | Fc1cc(F)c(-c2nc3ncsc3cc2Cl)c(F)c1 [Example I-035] | 90
43 | CCc1cc2scnc2nc1-c1ccccc1C(F)(F)F [Example I-049] | 100

The compounds below were run on Setaria viridis (SETVI) (assay: Herbicidal post-emergence action (B), 1280 g/ha). Details: rated visually after about 3 weeks vs untreated controls.
Assay type: in vivo
Text: as §1, §4, §5

Row | SMILES | herbicidal activity SETVI [%]
44 | Fc1cc(F)c(-c2nc3ncsc3cc2Cl)c(F)c1 [Example I-035] | 90
45 | Cc1cccc(F)c1-c1nc2ncsc2cc1Br [Example I-088] | 90

The compounds below were run on Stellaria media (STEME) (assay: Herbicidal post-emergence action (B), 1280 g/ha). Details: not given.
Assay type: in vivo
Text: as §1, §4, §5

Row | SMILES | herbicidal effect STEME [%]
46 | CCc1cc2scnc2nc1-c1ccccc1C(F)(F)F [Example I-049] | 90
47 | Cc1cccc(F)c1-c1nc2ncsc2cc1Br [Example I-088] | 100

Each compound was assayed on Veronica persica (VERPE) (assay: Herbicidal post-emergence action (B), 1280 g/ha). Details: not given.
Assay type: in vivo
Text: as §1, §4, §5

Row | SMILES | herbicidal effect VERPE [%]
48 | Fc1cc(F)c(-c2nc3ncsc3cc2Cl)c(F)c1 [Example I-035] | 90
49 | CCc1cc2scnc2nc1-c1ccccc1C(F)(F)F [Example I-049] | 90
50 | Cc1cccc(F)c1-c1nc2ncsc2cc1Br [Example I-088] | 100
